≈ marks a conversion by molar mass, not a printed value. Calls of active or inactive are those of the source. The calls are words filed in the database; no cut-off is given here.
Legend:
Escherichia coli [1] = experiment: Antibacterial activity against Escherichia coli K12 W3110 assessed as bacterial growth inhibition after 20 hrs by liquid microdilution method; type: functional
Pseudomonas aeruginosa [2] = experiment: Antibacterial activity against Pseudomonas aeruginosa PAO1 assessed as bacterial growth inhibition after 20 hrs by liquid microdilution method; type: functional
Staphylococcus aureus [3] = experiment: Antibacterial activity against Staphylococcus aureus FDA 209P assessed as bacterial growth inhibition after 20 hrs by liquid microdilution method; type: functional
Bacillus subtilis = experiment: Antibacterial activity against Bacillus subtilis 168 assessed as bacterial growth inhibition after 20 hrs by liquid microdilution method; type: functional; conditions: Bacillus subtilis, 168, 20 h
Salmonella typhimurium = experiment: Antibacterial activity against Salmonella typhimurium LT2 assessed as bacterial growth inhibition after 20 hrs by liquid microdilution method; type: functional, Salmonella enterica subsp. enterica serovar Typhimurium; conditions: Salmonella enterica, LT2, 20 h
[4] = Haemolytic activity in rabbit RBCs at 50 uM relative to control; type: ADME, cell-based, Oryctolagus cuniculus, Erythrocyte; conditions: rabbit red blood cells (erythrocytes), read-out: Activity
[5] = Partition coefficient, log P of compound; type: physicochemical; conditions: octanol/water
Escherichia coli [6] = experiment: Antimicrobial activity against ESBL-producing Escherichia coli assessed as bacterial growth inhibition after 20 hrs by liquid microdilution method; type: functional
Escherichia coli [7] = experiment: Antimicrobial activity against carbapenem-resistant Escherichia coli assessed as bacterial growth inhibition after 20 hrs by liquid microdilution method; type: functional
Pseudomonas aeruginosa [8] = experiment: Antibacterial activity against carbapenem-reistant Pseudomonas aeruginosa PAO1 assessed as bacterial growth inhibition after 20 hrs by liquid microdilution method; type: functional; conditions: PAO1, 20 h
Staphylococcus aureus [9] = experiment: Induction of membrane permeabilization in Staphylococcus aureus FDA 209P assessed as decrease in cell viability; type: functional, organism-based
Staphylococcus aureus [10] = experiment: Induction of membrane permeabilization in Staphylococcus aureus FDA 209P assessed as increase in potassium efflux; type: functional, organism-based
Escherichia coli [11] = experiment: Induction of membrane permeabilization in Escherichia coli K12 W3110 assessed as increase in potassium efflux; type: functional, organism-based
Escherichia coli [12] = experiment: Induction of membrane permeabilization in Escherichia coli K12 W3110 assessed as decrease in cell viability; type: functional, organism-based
Escherichia coli [13] = experiment: Antimicrobial activity against […] at sub-MIC treated by resistant development assay; type: functional; conditions: K-12 substr. W3110
Staphylococcus aureus [14] = experiment: Antibacterial activity against Staphylococcus aureus FDA 209P at sub-MIC by resistant development assay; type: functional

| Compound | MIC (Escherichia coli [1]; K-12 substr. W3110) [µM] | MIC (Pseudomonas aeruginosa [2]) [µM] | MIC (Staphylococcus aureus [3]) [µM] | MIC (Bacillus subtilis) [µM] | MIC (Escherichia coli [1]; K-12 substr. W3110, 20 h) [µM] | MIC (Salmonella typhimurium) [µM] | MIC (Pseudomonas aeruginosa [2]; PAO1, 20 h) [µM] | hemolysis at 50 µM [4] [%] | logP [5] | MIC (Escherichia coli [6]) [µM] | MIC (Escherichia coli [7]) [µM] | MIC (Pseudomonas aeruginosa [8]) [µM] | Activity (Staphylococcus aureus [9]) | Activity (Staphylococcus aureus [10]) | Activity (Escherichia coli [11]) | Activity (Escherichia coli [12]) | MIC (Escherichia coli [13]) [µM] | MIC (Staphylococcus aureus [14]) [µM] |
| --- | --- | --- | --- | --- | --- | --- | --- | --- | --- | --- | --- | --- | --- | --- | --- | --- | --- | --- |
| COLISTIN | 0.7 | 2 | – | – | – | – | – | – | – | – | – | – | – | – | – | – | – | – |
| CCC(=O)O[C@@H]1[C@@H](OC(=O)CC)[C@H]2O[C@H]3[C@H](OC(=O)CC)[C@@H](OC(=O)CC)[C@@H](O[C@H]4[C@H](OC(=O)CC)[C@@H](OC(=O)CC)[C@@H](O[C@H]5[C@@H](OC(=O)CC)[C@@H](OC(=O)CC)[C@H](O[C@H]6[C@H](OC(=O)CC)[C@@H](OC(=O)CC)[C@@H](O[C@H]7[C@H](OC(=O)CC)[C@@H](OC(=O)CC)[C@@H](O[C@H]8[C@H](OC(=O)CC)[C@@H](OC(=O)CC)[C@@H](O[C@@H]1[C@@H](Cn1cc(CN)nn1)O2)O[C@@H]8Cn1cc(CN)nn1)O[C@@H]7Cn1cc(CN)nn1)O[C@@H]6Cn1cc(CN)nn1)O[C@@H]5Cn1cc(CN)nn1)O[C@@H]4Cn1cc(CN)nn1)O[C@@H]3Cn1cc(CN)nn1 | – | – | 5 (≈ 12.4 µg/mL) | 2 (≈ 4.96 µg/mL) | 2 (≈ 4.96 µg/mL) | 5 (≈ 12.4 µg/mL) | 2 (≈ 4.96 µg/mL) | 20 | -0.89 | 6 (≈ 14.9 µg/mL) | 11 (≈ 27.3 µg/mL) | 6 (≈ 14.9 µg/mL) | – | – | – | – | – | – |
| CC(=O)O[C@@H]1[C@@H](OC(C)=O)[C@H]2O[C@H]3[C@H](OC(C)=O)[C@@H](OC(C)=O)[C@@H](O[C@H]4[C@H](OC(C)=O)[C@@H](OC(C)=O)[C@@H](O[C@H]5[C@H](OC(C)=O)[C@@H](OC(C)=O)[C@@H](O[C@H]6[C@H](OC(C)=O)[C@@H](OC(C)=O)[C@@H](O[C@H]7[C@H](OC(C)=O)[C@@H](OC(C)=O)[C@@H](O[C@H]8[C@H](OC(C)=O)[C@@H](OC(C)=O)[C@@H](O[C@H]9[C@H](OC(C)=O)[C@@H](OC(C)=O)[C@@H](O[C@@H]1[C@@H](Cn1cc(CN)nn1)O2)O[C@@H]9Cn1cc(CN)nn1)O[C@@H]8Cn1cc(CN)nn1)O[C@@H]7Cn1cc(CN)nn1)O[C@@H]6Cn1cc(CN)nn1)O[C@@H]5Cn1cc(CN)nn1)O[C@@H]4Cn1cc(CN)nn1)O[C@@H]3Cn1cc(CN)nn1 | – | – | > 36 | > 36 | > 36 | > 36 | > 36 | 1 | -2.2 | – | – | – | Active | Active | Active | Active | – | – |
| CC(C)C(=O)O[C@@H]1[C@@H](OC(=O)C(C)C)[C@H]2O[C@H]3[C@H](OC(=O)C(C)C)[C@@H](OC(=O)C(C)C)[C@@H](O[C@H]4[C@H](OC(=O)C(C)C)[C@@H](OC(=O)C(C)C)[C@@H](O[C@H]5[C@H](OC(=O)C(C)C)[C@@H](OC(=O)C(C)C)[C@@H](O[C@H]6[C@H](OC(=O)C(C)C)[C@@H](OC(=O)C(C)C)[C@@H](O[C@H]7[C@H](OC(=O)C(C)C)[C@@H](OC(=O)C(C)C)[C@@H](O[C@H]8[C@H](OC(=O)C(C)C)[C@@H](OC(=O)C(C)C)[C@@H](O[C@H]9[C@H](OC(=O)C(C)C)[C@@H](OC(=O)C(C)C)[C@@H](O[C@@H]1[C@@H](Cn1cc(CN)nn1)O2)O[C@@H]9Cn1cc(CN)nn1)O[C@@H]8Cn1cc(CN)nn1)O[C@@H]7Cn1cc(CN)nn1)O[C@@H]6Cn1cc(CN)nn1)O[C@@H]5Cn1cc(CN)nn1)O[C@@H]4Cn1cc(CN)nn1)O[C@@H]3Cn1cc(CN)nn1 | – | – | > 32 | > 32 | > 32 | > 31 | 31 (≈ 94.8 µg/mL) | 101 | 0.24 | – | – | – | – | – | – | – | – | – |
| CCn1cc(C(=O)O)c(=O)c2cc(F)c(N3CCNCC3)cc21 [NORFLOXACIN] | – | – | – | – | – | – | – | – | – | – | – | – | – | – | – | – | 0.2 to 6 (≈ 0.0639 to 1.92 µg/mL) | 0.8 to 3 (≈ 0.255 to 0.958 µg/mL) |
| CCC(=O)O[C@@H]1[C@@H](OC(=O)CC)[C@H]2O[C@H]3[C@H](OC(=O)CC)[C@@H](OC(=O)CC)[C@@H](O[C@H]4[C@H](OC(=O)CC)[C@@H](OC(=O)CC)[C@@H](O[C@H]5[C@H](OC(=O)CC)[C@@H](OC(=O)CC)[C@@H](O[C@H]6[C@H](OC(=O)CC)[C@@H](OC(=O)CC)[C@@H](O[C@H]7[C@H](OC(=O)CC)[C@@H](OC(=O)CC)[C@@H](O[C@H]8[C@H](OC(=O)CC)[C@@H](OC(=O)CC)[C@@H](O[C@H]9[C@H](OC(=O)CC)[C@@H](OC(=O)CC)[C@@H](O[C@@H]1[C@@H](Cn1cc(CN)nn1)O2)O[C@@H]9Cn1cc(CN)nn1)O[C@@H]8Cn1cc(CN)nn1)O[C@@H]7Cn1cc(CN)nn1)O[C@@H]6Cn1cc(CN)nn1)O[C@@H]5Cn1cc(CN)nn1)O[C@@H]4Cn1cc(CN)nn1)O[C@@H]3Cn1cc(CN)nn1 | – | – | 9 (≈ 25.5 µg/mL) | 2 (≈ 5.67 µg/mL) | 4 (≈ 11.3 µg/mL) | 9 (≈ 25.5 µg/mL) | 4 (≈ 11.3 µg/mL) | 17 | -0.89 | 4 (≈ 11.3 µg/mL) | 9 (≈ 25.5 µg/mL) | 9 (≈ 25.5 µg/mL) | Active | Active | Active | Active | – | – |

Source: ChEMBL document CHEMBL4334431, “Gramicidin S-inspired antimicrobial cyclodextrin to disrupt gram-negative and gram-positive bacterial membranes” (Medchemcomm, 2019)
